Laboratory results published in patent US11807835B2, “Detergent compositions containing a stabilized enzyme by phosphonates” (ECOLAB USA INC., priority 2016, dated 2023).

What was measured:
[1] = test system: amylase; experiment: Amylase activity retention in detergent use solution (4000 ppm, 5 GPG water; ethylidene substrate EPS, HEPES buffer pH 8.0); type: biochemical
Method: (§1) The enzyme activities in the detergents with different phosphonate levels were tested at 4000 ppm in 5 grains per gallon (GPG) water at 120° F. with various time points collected up to 4 hours, after a use solution was generated from the detergent composition. During the tests, the samples at different time points were collected and immediately frozen in an acetone/dry ice bath and stored in −80° C. before the activity of the enzyme was evaluated. For the use of such an assay, t=0 min was the reference point for 100% enzyme activity.
(§2) Assays of enzyme activity in formulations (% retention) were conducted to simulate a presoak condition in a beaker using the chemistry, temperature, and pH conditions relevant to manual warewash or presoak applications. Enzyme activity is an indicator of the stability of the enzyme in the detergent, specifically in an aqueous use solution within a sump (which is under conditions of high pH, temperature and dilution).
(§3) Enzyme activity under presoak or manual warewash conditions was traced quantitatively using a standard protease assay. Samples were prepared under bench top conditions, whereby the use solution from a detergent composition or detergent was obtained and maintained at a presoak or manual warewash temperature in a stirring water bath. After the time course for assessing enzyme stability is initiated, aliquots were taken at various time points and flash-frozen. A time=0 sample was prepared for each series by dissolving the detergent formulation at room temperature, mixing thoroughly, and flash freezing. Samples were thawed and diluted as necessary in an assay buffer usually for use in the protease assay. A glycine buffer at pH 9.0 is used here. The assay monitored the direct reaction of the protease on a small, commercially available peptidyl substrate, with liberation of the product providing correlation to the active enzyme content. The product was detected using a plate reader with an appreciable dynamic range (upper absorbance limit of the instrument >3.5). Enzyme activity levels were assessed relative to a calibration curve with average values for replicate tests used to map protease stability under presoak or manual warewash use conditions. Enzyme retention at each time point was calculated as the % enzyme activity relative to the time=0 sample.
(§4) The analysis by lipase and amylase assay was conducted similarly, except with a different substrate and buffers. For lipase activity, the substrate is p-nitrophenyl valerate, and for amylase, the substrate is an ethylidene substrate (EPS). The buffer used in lipase assay is TRIS (Tris(hydroxymethyl)aminomethane) buffer at pH 8.0, and in amylase assay HEPES (4-(2-hydroxyethyl)-1-piperazineethanesulfonic acid) buffer at pH 8.0.

[2] = test system: lipase; experiment: Lipase activity retention in detergent use solution (4000 ppm, 5 GPG water; p-nitrophenyl valerate, TRIS buffer pH 8.0); type: biochemical; settings: Table 6E, phosphonate 0.3 wt-%, room temperature
Method: as §1, with “activities in the detergents with different phosphonate levels were tested at 4000 ppm in 5 grains per gallon (GPG) water at 120° F. with various time points” left out
as §2, §3, §4

Compound: CC(O)(P(=O)(O)O)P(=O)(O)O [HEDP, 1-hydroxy ethylidene-1,1-diphosphonic acid]
- Relative Amylase Enzyme Activity ([1]; All Ash formula, phosphonate 0.3 wt-%, use solution at 120° F., time 0 min): 92.90%
- Relative Amylase Enzyme Activity ([1]; All Ash formula, phosphonate 0.3 wt-%, use solution at 120° F., time 5 min): 100.00%
- Relative Amylase Enzyme Activity ([1]; All Ash formula, phosphonate 0.3 wt-%, use solution at 120° F., time 10 min): 97.04%
- Relative Amylase Enzyme Activity ([1]; All Ash formula, phosphonate 0.3 wt-%, use solution at 120° F., time 20 min): 87.85%
- Relative Amylase Enzyme Activity ([1]; All Ash formula, phosphonate 0.3 wt-%, use solution at 120° F., time 40 min): 70.85%
- Relative Amylase Enzyme Activity ([1]; All Ash formula, phosphonate 0.3 wt-%, use solution at 120° F., time 60 min): 55.60%
- Relative Amylase Enzyme Activity ([1]; All Ash formula, phosphonate 0.3 wt-%, use solution at 120° F., time 90 min): 63.30%
- Relative Amylase Enzyme Activity ([1]; All Ash formula, phosphonate 0.3 wt-%, use solution at 120° F., time 120 min): 58.18%
- Relative Amylase Enzyme Activity ([1]; All Ash formula, phosphonate 0.3 wt-%, use solution at 120° F., time 150 min): 54.50%
- Relative Amylase Enzyme Activity ([1]; All Ash formula, phosphonate 0.3 wt-%, use solution at 120° F., time 180 min): 45.78%
- Relative Amylase Enzyme Activity ([1]; All Ash formula, phosphonate 0.3 wt-%, use solution at 120° F., time 210 min): 44.79%
- Relative Amylase Enzyme Activity ([1]; All Ash formula, phosphonate 0.3 wt-%, use solution at 120° F., time 240 min): 41.67%
- Relative Amylase Enzyme Activity ([1]; base formula, phosphonate 0.3 wt-%, use solution at 120° F., time 0 min): 100.00%
- Relative Amylase Enzyme Activity ([1]; base formula, phosphonate 0.3 wt-%, use solution at 120° F., time 5 min): 81.99%
- Relative Amylase Enzyme Activity ([1]; base formula, phosphonate 0.3 wt-%, use solution at 120° F., time 10 min): 90.32%
- Relative Amylase Enzyme Activity ([1]; base formula, phosphonate 0.3 wt-%, use solution at 120° F., time 20 min): 95.23%
- Relative Amylase Enzyme Activity ([1]; base formula, phosphonate 0.3 wt-%, use solution at 120° F., time 40 min): 84.92%
- Relative Amylase Enzyme Activity ([1]; base formula, phosphonate 0.3 wt-%, use solution at 120° F., time 60 min): 72.27%
- Relative Amylase Enzyme Activity ([1]; base formula, phosphonate 0.3 wt-%, use solution at 120° F., time 90 min): 79.95%
- Relative Amylase Enzyme Activity ([1]; base formula, phosphonate 0.3 wt-%, use solution at 120° F., time 120 min): 84.46%
- Relative Amylase Enzyme Activity ([1]; base formula, phosphonate 0.3 wt-%, use solution at 120° F., time 150 min): 79.54%
- Relative Amylase Enzyme Activity ([1]; base formula, phosphonate 0.3 wt-%, use solution at 120° F., time 180 min): 84.18%
- Relative Amylase Enzyme Activity ([1]; base formula, phosphonate 0.3 wt-%, use solution at 120° F., time 210 min): 69.49%
- Relative Amylase Enzyme Activity ([1]; base formula, phosphonate 0.3 wt-%, use solution at 120° F., time 240 min): 88.63%
- Relative Amylase Enzyme Activity ([1]; base formula, phosphonate 0.6 wt-%, use solution at 120º F., time 0 min): 100.00%
- Relative Amylase Enzyme Activity ([1]; base formula, phosphonate 0.6 wt-%, use solution at 120º F., time 5 min): 96.09%
- Relative Amylase Enzyme Activity ([1]; base formula, phosphonate 0.6 wt-%, use solution at 120º F., time 10 min): 99.71%
- Relative Amylase Enzyme Activity ([1]; base formula, phosphonate 0.6 wt-%, use solution at 120º F., time 20 min): 91.20%
- Relative Amylase Enzyme Activity ([1]; base formula, phosphonate 0.6 wt-%, use solution at 120º F., time 40 min): 94.89%
- Relative Amylase Enzyme Activity ([1]; base formula, phosphonate 0.6 wt-%, use solution at 120º F., time 60 min): 97.28%
- Relative Amylase Enzyme Activity ([1]; base formula, phosphonate 0.6 wt-%, use solution at 120º F., time 90 min): 94.67%
- Relative Amylase Enzyme Activity ([1]; base formula, phosphonate 0.6 wt-%, use solution at 120º F., time 120 min): 88.12%
- Relative Amylase Enzyme Activity ([1]; base formula, phosphonate 0.6 wt-%, use solution at 120º F., time 150 min): 90.33%
- Relative Amylase Enzyme Activity ([1]; base formula, phosphonate 0.6 wt-%, use solution at 120º F., time 180 min): 86.96%
- Relative Amylase Enzyme Activity ([1]; base formula, phosphonate 0.6 wt-%, use solution at 120º F., time 210 min): 96.92%
- Relative Amylase Enzyme Activity ([1]; base formula, phosphonate 0.6 wt-%, use solution at 120º F., time 240 min): 92.50%
- Relative Amylase Enzyme Activity ([1]; base formula, phosphonate at 0.1% elemental phosphorus level, use solution at 120º F., time 5 min): 100.00%
- Relative Amylase Enzyme Activity ([1]; base formula, phosphonate at 0.1% elemental phosphorus level, use solution at 120º F., time 10 min): 97.58%
- Relative Amylase Enzyme Activity ([1]; base formula, phosphonate at 0.1% elemental phosphorus level, use solution at 120º F., time 20 min): 90.30%
- Relative Amylase Enzyme Activity ([1]; base formula, phosphonate at 0.1% elemental phosphorus level, use solution at 120º F., time 40 min): 81.48%
- Relative Amylase Enzyme Activity ([1]; base formula, phosphonate at 0.1% elemental phosphorus level, use solution at 120º F., time 60 min): 83.84%
- Relative Amylase Enzyme Activity ([1]; base formula, phosphonate at 0.1% elemental phosphorus level, use solution at 120º F., time 90 min): 85.26%
- Relative Amylase Enzyme Activity ([1]; base formula, phosphonate at 0.1% elemental phosphorus level, use solution at 120º F., time 120 min): 82.59%
- Relative Amylase Enzyme Activity ([1]; base formula, phosphonate at 0.1% elemental phosphorus level, use solution at 120º F., time 180 min): 75.47%
- Relative Amylase Enzyme Activity ([1]; base formula, phosphonate at 0.1% elemental phosphorus level, use solution at 120º F., time 210 min): 85.77%
- Relative Amylase Enzyme Activity ([1]; base formula, phosphonate at 0.1% elemental phosphorus level, use solution at 120º F., time 240 min): 81.23%
- Relative Lipase Enzyme Activity in a Use Solution ([2]; time 0 min): 100.00%
- Relative Lipase Enzyme Activity in a Use Solution ([2]; time 5 min): 101.22%
- Relative Lipase Enzyme Activity in a Use Solution ([2]; time 10 min): 102.97%
- Relative Lipase Enzyme Activity in a Use Solution ([2]; time 20 min): 98.65%
- Relative Lipase Enzyme Activity in a Use Solution ([2]; time 40 min): 81.12%
- Relative Lipase Enzyme Activity in a Use Solution ([2]; time 60 min): 89.82%
- Relative Lipase Enzyme Activity in a Use Solution ([2]; time 90 min): 104.91%
